{
  "source": "patent US10851089B2",
  "about": "“Matrix metalloproteinase (MMP) inhibitors and methods of use thereof” (Foresee Pharmaceuticals Co., Ltd., priority 2018, dated 2020)",
  "key": {"recombinant human MMP-2": {"molecular_target": "recombinant human MMP-2 (Homo sapiens (Human), UniProt P08253)", "sequence (P08253 110-660)": "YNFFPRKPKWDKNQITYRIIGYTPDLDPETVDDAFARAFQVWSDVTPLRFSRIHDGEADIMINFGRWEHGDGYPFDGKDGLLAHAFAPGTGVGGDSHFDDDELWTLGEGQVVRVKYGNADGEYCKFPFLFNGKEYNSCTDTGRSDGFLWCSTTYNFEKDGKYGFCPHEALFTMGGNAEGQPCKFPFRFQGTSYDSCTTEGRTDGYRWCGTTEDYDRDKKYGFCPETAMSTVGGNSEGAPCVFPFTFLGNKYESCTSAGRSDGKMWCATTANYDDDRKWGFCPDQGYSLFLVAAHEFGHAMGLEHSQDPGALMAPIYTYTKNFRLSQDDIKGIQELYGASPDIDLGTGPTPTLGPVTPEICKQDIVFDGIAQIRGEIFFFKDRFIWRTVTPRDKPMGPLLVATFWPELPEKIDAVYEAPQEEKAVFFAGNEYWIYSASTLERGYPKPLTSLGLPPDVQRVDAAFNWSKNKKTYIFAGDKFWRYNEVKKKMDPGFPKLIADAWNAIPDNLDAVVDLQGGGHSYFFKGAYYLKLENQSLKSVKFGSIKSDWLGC", "test": "MMP selectivity assay MMP-2", "type": "biochemical", "experimental": "(§1) The inhibitory effect of compounds on the rate of cleaving fluorogenic MMP substrate (Enzo, BML-P128) by recombinant human MMP-12 catalytic domain (Enzo, BML-SE138) was carried out by methods known in the art. Briefly, to each well of a 96-well black opaque plate, all the reagents were sequentially added by pipetting, and the final reaction contained 4 nM of recombinant human MMP-12 catalytic domain, 4 μM of fluorogenic MMP substrate, and various concentrations (0.15 nM to 10,000 nM) of tested compound dilutions in HEPES buffer (pH 7.5) containing 10 mM of CaCl2, 0.01% Brij® 35 (polyoxyethylene (23) lauryl ether), and 0.1 mg/ml of BSA.\n(§2) The enzyme and compounds were pre-incubated on a shaker to mix in wells. After an hour of mixing, fluorogenic substrate was added to each well. Reaction without enzyme was used as a blank control in the plate. The plate was then fed into a plate reader to measure fluorescence intensity at Excitation/Emission wavelengths of 340 nm/440 nm every 10 mins for at least 1 hour at 37° C. The IC50 of each compound in MMP-12 inhibition was determined by using a readout obtained at time point 30 minutes.\n(§3) The MMP selectivity assay was performed by using other recombinant human MMPs, including MMP-1, MMP-2, MMP-3, MMP-7, MMP-8, MMP-9, MMP-10, MMP-13, and MMP-14. The IC50 of the compounds for the other recombinant human MMPs was determined as described above in Example 1, and are shown in Table 2."}, "recombinant human MMP-14": {"molecular_target": "recombinant human MMP-14 (Homo sapiens (Human), UniProt P50281)", "test": "MMP selectivity assay MMP-14", "type": "biochemical", "experimental": "as §1, §2, §3"}},
  "note": "pIC50: −log10 of the molar value.",
  "data": [
    {"smiles": "Cc1cc(COc2ccc(Sc3ccoc3C3NC(=O)NC3=O)cc2)ccn1", "note": "(centres unmarked) [FC-4]", "values": [
      {"measurement": "pIC50", "setting": "recombinant human MMP-2", "value": "6.00 to 7.00"},
      {"measurement": "pIC50", "setting": "recombinant human MMP-14", "value": "5.00 to 6.00"}
    ]}
  ]
}
